For assay [1], the target named is T1, SR Ca2+-ATPase in fast skeletal muscle SR vesicles (Cavia porcellus, UniProt H0UXI0).
T1 construct: Their hearts or the psoas muscles were excised; from tissue; host or cells: guinea pig psoas muscle, SR vesicles
Nature of the assay: Calcium uptake assay (fluo-3), fast skeletal muscle (psoas m.) SR vesicles, which lack phospholamban. Format: biochemical, guinea pig. To be noted: for activation at 100 µM: compound 100 μM. The method, then:
(§1) Preparation of the SR-vesicles
(§2) Guinea pigs (10-12) were decapited. Their hearts or the psoas muscles were excised, washed in ice-cold 0.9% NaCl and cut into pieces in a buffer containing 20 mM Tris-maleate, 0.3 M sucrose, pH 7.0. Thereafter tissue pieces were homogenized with Polytron and further with Potter (10 strokes). The homogenate was centrifugated at 1000 g for 15 min at 4° C. The supernatant was collected and the pellet was resuspended into 5 ml of the buffer (20 mM Tris-maleate, 0.3 M sucrose, pH 7.0) and recentrifugated at 1000 g for 10 min at 4° C. The obtained supernatant was combined with the earlier collected supernatant and centrifugated once again at 10 000 g for 20 min at 4° C. The final supernatant was filtered into a bottle equipped with a magnetic stirrer. KCl was added to the filtered supernatant to achieve the final concentration of 0.6 M (at 4° C.). The obtained solution was centrifugated at 100 000 g for 60 min at 4° C. The pellet was suspended in 5 ml of the buffer containing 20 mM Tris-maleate, 0.3 M sucrose, pH 7.0 and centrifugated at 100 000 g for 60 min at 4° C. The obtained pellet was suspended in 5 ml of buffer containing 20 mM Tris-maleate, 0.3 M sucrose, 0.1 M KCl, pH 7.0 and stored at -80° C. until use. The protein concentration was also measured in order to standardise the separately prepared vesicle preparations.
(§3) In the calcium uptake assay, the fluorescent indicator, fluo-3 was used to detect the decrease of the extravesicular Ca^2+ -concentration, when the SR Ca^2+ ATPase was transferring Ca^2+ from the extravesicular space into the SR-vesicles.
(§4) The SR-vesicles obtained above (50 μg protein/ml) were pre-incubated with or without the test compound at 37° C. for 5 min in the assay buffer containing 40 mM imidazole, 95 mM KCl, 5 mM NaN3, 5 mM MgCl2, 0.5 mM EGTA, 5 mM potassium oxalate, 2 μM ruthenium red, 5 μM fluo-3, pH 7.0. The free calcium was adjusted to 0.1 μM or to 0.04 μM by CaCl2. The reaction was initiated by adding ATP (5 mM). The final reaction volume was 1.5 ml. The fluorescence of reaction mixture was measured for 3 min by using the excitation and emission wavelengths of 510 nm and 530 nm, respectively.
(§5) The experiments were carried out at 0.1 μM and 0.04 μM free calcium concentrations, respectively.

For assay [2], the target named is T2, phospholamban inhibition of SR Ca2+-ATPase in cardiac muscle SR vesicles (Cavia porcellus, UniProt A0A286XLC6).
T2 construct: Their hearts or the psoas muscles were excised; from tissue; host or cells: guinea pig heart (ventricular myocardium), SR vesicles
T2 sequence (A0A286XLC6 1-52): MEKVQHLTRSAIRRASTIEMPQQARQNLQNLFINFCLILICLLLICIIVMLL
As to the kind of experiment: Calcium uptake assay (fluo-3), cardiac SR vesicles. Format: biochemical, guinea pig. Particulars: for activation at 100 µM: compound 100 μM. The method, then:
as §1, §2, §3, §4, §5

The subject of assay [3] is PLB[1-36 a.a.](Ser16PO3-, Thr17PO3-). Nature of the assay: Circular dichroism (CD) spectroscopy, binding to double phosphorylated phospholamban fragment. Further details: species or system human. Particulars: double phosphorylated peptide; FIG. 2. The protocol: (§6) Both the 36 amino acid N-terminal fragment of human phospholamban (PLB [1-36 a.a.]) and the 36 amino acid N-terminal fragment of double phosphorylated human phospholamban (PLB [1-36 a.a.](Ser16PO3 -, Thr17PO3 -)) were obtained by peptide synthesis. The peptides were purified by reverse phase HPLC, analysed for homogenity by mass spectrometry and were found pure at 97%. The peptides were lyophilized and then resuspended in water at the final concentration of 0.1 mM, for CD analysis. The pH of both solutions was between 3 and 4 and was not further adjusted. Compound of Example 1c was solved in water at a final concentration of 0.1 mM. The pH was adjusted at 7.2 by adding 1 N NaOH.
(§7) Circular dichroism spectra were acquired at 24° C. on samples of 100 μl. The spectra were recorded on a Jasco J-720 spectropolarimeter using a 1 mm path-length quartz cuvette. The band width was 1 nm, the sensitivity 20 mdeg, the step resolution 0.5 nm, the response time 0.5 sec, and the scan speed 20 nm/min (from 250 to 190 nm). The spectra were expressed in [θ]×10^-3 ×degrees×cm^2 ×dmol^-1.
Background: Circular dichroism is widely used to follow secondary structure.

Assay [4] deals with T3, PLB[1-36 a.a.] (36 amino acid N-terminal fragment of human phospholamban) (Homo sapiens, UniProt P26678).
T3 construct: the pSer16/pThr17 doubly phosphorylated peptide was compared
T3 sequence (P26678 1-36): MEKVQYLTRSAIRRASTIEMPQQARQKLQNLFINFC
Nature of the assay: Circular dichroism (CD) spectroscopy, binding to cytosolic part of phospholamban. To be noted: FIG. 2. The protocol: as §6, §7

The test system of assay [5] is isolated guinea-pig Langendorff heart. Nature of the assay: Development of stunned myocardium in isolated Langendorff heart (ischemia-reperfusion). Particulars: 10 μM in perfusion buffer; three 8 min global ischemia periods each followed by reperfusion; FIG. 3B. The protocol:
Guinea-pigs of either sex weighing 300-400 g were used in the study. After the guinea-pig was sacrificed by a blow on the skull and decapitated the heart was rapidly excised. The heart was then rinsed in oxygenated perfusion buffer. A cannula was inserted into the aorta and secured with a ligature. Retrograde perfusion began as soon as the heart was placed in a thermostatically controlled moist chamber of the Langendorff apparatus. Modified Tyrode solution (37° C.), equilibrated in a thermostatically controlled bulb oxygenator with carbogen (95% O2 and 5% CO2) was used as a perfusion buffer. The composition of the Tyrode solution was (in mM): NaCl 135; MgCl2 ×6H2 O 1; KCl 5; CaCl2 ×2H2 O 2; NaHCO3 15; Na2 HPO4 ×2H2 O 1; glucose 10; pH 7.3-7.4. The experiments were carried out under constant pressure condition (50 mmHg). After a short prestabilization (10 min) a latex balloon attached through the stainless-steel cannula to a pressure transducer was carefully placed into the left ventricle through the left pulmonary vein and the left atrium. The latex balloon, the cannula and the chamber of the pressure transducer were filled with ethylene glycol/water (1:1) mixture avoiding any air-bubble. The isovolumetric left ventricular pressure was recorded through the pressure transducer. […]

Setting [6] is: 0.05 h, 0.04 μM free calcium, read-out: The stimulation (%) of Ca2+ uptake, B (fast skeletal muscle vesicles).
The mark [7] stands for this setting: 0.05 h, 0.1 μM free calcium, read-out: The stimulation (%) of Ca2+ uptake, A (ventricular myocardium vesicles).

“Also recorded” adds a separate entry of the source.

T1 sequence (H0UXI0 entry or part of it limits assumed): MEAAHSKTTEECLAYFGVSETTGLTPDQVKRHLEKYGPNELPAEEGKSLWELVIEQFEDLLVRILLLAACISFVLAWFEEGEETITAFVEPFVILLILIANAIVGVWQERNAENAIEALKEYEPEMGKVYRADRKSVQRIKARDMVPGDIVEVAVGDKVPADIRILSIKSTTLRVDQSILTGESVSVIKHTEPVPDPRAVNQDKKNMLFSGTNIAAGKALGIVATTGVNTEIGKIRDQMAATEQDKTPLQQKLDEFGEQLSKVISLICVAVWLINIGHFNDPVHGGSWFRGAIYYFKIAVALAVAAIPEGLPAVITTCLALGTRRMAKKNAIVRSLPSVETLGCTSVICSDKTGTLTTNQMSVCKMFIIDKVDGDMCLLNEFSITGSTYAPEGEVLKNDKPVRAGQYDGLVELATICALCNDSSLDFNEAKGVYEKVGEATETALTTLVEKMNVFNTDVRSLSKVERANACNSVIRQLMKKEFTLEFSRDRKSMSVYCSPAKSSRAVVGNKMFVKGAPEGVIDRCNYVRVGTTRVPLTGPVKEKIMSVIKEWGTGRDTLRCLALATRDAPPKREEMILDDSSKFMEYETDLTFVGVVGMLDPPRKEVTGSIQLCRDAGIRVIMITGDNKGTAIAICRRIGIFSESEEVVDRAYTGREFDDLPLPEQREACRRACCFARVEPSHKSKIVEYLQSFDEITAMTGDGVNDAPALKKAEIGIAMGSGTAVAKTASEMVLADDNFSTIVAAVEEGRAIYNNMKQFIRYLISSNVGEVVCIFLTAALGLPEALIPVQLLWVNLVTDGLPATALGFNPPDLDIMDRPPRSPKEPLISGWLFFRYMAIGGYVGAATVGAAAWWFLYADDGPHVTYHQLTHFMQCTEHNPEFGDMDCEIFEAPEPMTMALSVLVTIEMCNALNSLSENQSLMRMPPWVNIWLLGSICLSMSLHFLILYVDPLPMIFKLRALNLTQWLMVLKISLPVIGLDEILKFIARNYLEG

As for `Cc1c(Cc2ccccc2)c(=O)oc2cc(OCc3nnn[nH]3)cc(OCc3nnn[nH]3)c12` [Example 1c, 3-Benzyl-5,7-bis[(1H -tetrazol-5-yl)methoxy]-4-methyl-2H -1-benzopyran-2-one], the activation at 100 µM in assay [1] (setting [6]) is -6%; in assay [2] (setting [7]), 42%. In assay [3], the “Interaction with phosphorylated PLB[1-36 a.a.](Ser16PO3-, Thr17PO3-) by CD” value is recorded as “does not interact or interacts weakly”. Moreover, in assay [4] (50 μM each, water, room temperature), the “Change in CD spectrum (α-helical contribution) of PLB[1-36 a.a.] after addition of compound” value is “marked increase of α-helical contribution”. Besides, the “Interaction (complex formation) with PLB[1-36 a.a.] by CD” value in assay [4] (unphosphorylated peptide) is recorded as “forms a complex with PLB; also recorded: interacts with the cytosolic part of phospholamban”.

Take `Cc1c(Cc2ccccc2)c(=O)n(Cc2ccccc2)c2cc(OCC(=O)NO)cc(OCC(=O)NO)c12` [Example 23, 5,7-Bis(hydroxyaminocarbonylmethoxy)-1,3-dibenzyl-4-methyl-2(1H)-quinolinone]: in assay [2] (0.05 h, compound 5 μM, 0.1 μM free calcium, read-out: The stimulation (%) of Ca2+ uptake, A (ventricular myocardium vesicles)), the activation at 5 µM amounted to 20%.

In the case of `Cc1c(CCc2ccccc2)c(=O)oc2cc(OCc3nnn[nH]3)cc(OCc3nnn[nH]3)c12` [Example 7c, 5,7-Bis[(1H-tetrazol-5-yl)methoxy]-4-methyl-3-(2-phenylethyl)-2H-1benzopyran-2-one], the activation at 100 µM in assay [1] (setting [6]) was -17%; in assay [2] (setting [7]), 5%.

As for `Cc1c(Cc2ccccc2)c(=O)oc2cc(OCc3noc(=O)[nH]3)cc(OCc3noc(=O)[nH]3)c12` [Example 3c, 3-Benzyl-5,7-bis[(2,5-dihydro-5-oxo-4H -1,2,4-oxadiazol-3-yl)-methoxy]-4-methyl-2H -1-benzopyran-2-one], the activation at 20 µM in assay [1] (0.05 h, compound 20 μM, 0.04 μM free calcium, read-out: The stimulation (%) of Ca2+ uptake, B (fast skeletal muscle vesicles)) turned out to be 0%.

In the case of `O=c1oc2cc(OCc3nnn[nH]3)cc(OCc3nnn[nH]3)c2c2c1C(c1ccccc1)CCC2` (centres unmarked) [Example 2c, 7,8,9,10-Tetrahydro-1,3-bis[(1H -tetrazol-5-yl)methoxy]-7-phenyl-6H-dibenzo[b,d]pyran-6-one], the activation at 100 µM in assay [1] (setting [6]) is -1%.

With `Cc1c(Cc2ccccc2)c(=O)n(Cc2ccccc2)c2cc(OCc3nnn[nH]3)cc(OCc3nnn[nH]3)c12` [Example 8g, 5,7-Bis[(1H-tetrazol-5-yl)methoxy]-1,3-dibenzyl-4-methyl-2(1H)-quinolinone], the “Development of stunned myocardium (left ventricular systolic pressure)” value in assay [5] was “complete inhibition of the development of stunned myocardium; also recorded: completely inhibited the development of stunned myocardium”. For the same compound, the “Effect on the calcium uptake into the SR vesicle prepared from the fast skeletal muscle” value in assay [1] (0.1-10 μM) is reported as “did not change the calcium uptake”. In assay [1] (0.05 h, compound 10 μM, 0.04 μM free calcium, read-out: The stimulation (%) of Ca2+ uptake, B (fast skeletal muscle vesicles)), the activation at 10 µM turned out to be 0%. Moreover, the “Effect on the Ca2+ uptake rate into the cardiac muscle SR vesicles” value in assay [2] (0.1, 1.0 and 10 μM, FIG. 1) is listed as “accelerated the calcium uptake”.

Values taken from patent US5968959A, “Method for the prevention and treatment of stunned myocardium” (Orion Corporation, priority 1998, dated 1999).
